In US20230212549A1, “COMPOUNDS COMPRISING A […] LIGAND AND USE THEREOF” (priority 2021, published 2023):

Tests used:
Type in all cases: biochemical
proteases [1] = target: T1, proteases (Homo sapiens, UniProt Q6V1X1); conditions: DPP8; Reference at 200 μM
T1 construct: BPS Biosciences (ran the screen)

proteases [2] = target: proteases (Homo sapiens, UniProt Q9UHL4); conditions: DPP7; Reference at 200 μM
proteases [3] = target: T2, proteases (Homo sapiens, UniProt P08253); conditions: Matrix metalloprotease 2; Reference at 100 nM
T2 construct: BPS Biosciences (ran the screen)
T2 sequence (P08253 110-660): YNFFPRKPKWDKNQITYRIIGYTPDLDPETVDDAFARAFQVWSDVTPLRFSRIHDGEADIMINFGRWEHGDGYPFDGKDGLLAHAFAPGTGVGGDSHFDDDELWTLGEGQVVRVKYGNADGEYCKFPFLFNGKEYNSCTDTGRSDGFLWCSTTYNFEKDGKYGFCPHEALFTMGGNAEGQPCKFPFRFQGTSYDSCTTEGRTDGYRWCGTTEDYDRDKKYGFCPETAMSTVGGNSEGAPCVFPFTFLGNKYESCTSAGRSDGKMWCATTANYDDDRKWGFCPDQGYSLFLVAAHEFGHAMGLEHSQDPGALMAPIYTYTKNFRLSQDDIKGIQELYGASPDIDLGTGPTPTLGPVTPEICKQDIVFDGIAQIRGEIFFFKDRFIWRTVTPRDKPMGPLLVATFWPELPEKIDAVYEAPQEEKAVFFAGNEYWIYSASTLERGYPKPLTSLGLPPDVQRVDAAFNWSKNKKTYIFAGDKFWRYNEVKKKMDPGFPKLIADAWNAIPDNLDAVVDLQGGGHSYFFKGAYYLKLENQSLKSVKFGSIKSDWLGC

proteases [4] = target: T3, proteases (Homo sapiens, UniProt P14780, Q279R); conditions: 0.1 µM
T3 construct: BPS Biosciences (ran the screen)

proteases [5] = target: T4, proteases (Homo sapiens, UniProt P03956); conditions: Matrix metalloproteasel; Reference at 1 μM
T4 construct: BPS Biosciences (ran the screen)

proteases [6] = target: T5, proteases (Homo sapiens, UniProt Q12884); conditions: FAP; Reference at 100 nM
T5 construct: BPS Biosciences (ran the screen)

proteases [7] = target: T6, proteases (Hepatitis C virus genotype 1b, UniProt P26663); conditions: serine protease NS3 (a.a. 3-181) from Hepatitis C virus genotype 1b; Reference at 100 nM
T6 construct: BPS Biosciences (ran the screen)

proteases [8] = target: T7, proteases (Hepatitis C virus genotype 1b, UniProt P26663, R1181Q); conditions: serine protease NS3 (a.a. 3-181) from Hepatitis C virus genotype 1b (mutant R155Q); Reference at 1 μM
T7 construct: BPS Biosciences (ran the screen)

proteases [9] = target: T8, proteases (Hepatitis C virus genotype 2a, UniProt Q99IB8); conditions: serine protease NS3 (a.a. 3-181) from Hepatitis C virus genotype 2a; Reference at 100 nM
T8 construct: BPS Biosciences (ran the screen)

proteases [10] = target: T9, proteases (Hepatitis C virus genotype 1a, UniProt P27958, D1194V); conditions: serine protease NS3 (a.a. 3-181) from Hepatitis C virus genotype 1a (mutant D168V); Reference at 100 nM
T9 construct: BPS Biosciences (ran the screen)

proteases [11] = target: T10, proteases (Hepatitis C virus genotype 1b, UniProt P26663, D1194V); conditions: serine protease NS3 (a.a. 3-181) from Hepatitis C virus genotype 1b (mutant D168V); Reference at 100 nM
T10 construct: BPS Biosciences (ran the screen)

proteases [12] = target: T11, proteases (Homo sapiens, UniProt P09936); conditions: Ubiquitin carboxy-terminal hydrolase L1; Reference at 100 nM
T11 construct: BPS Biosciences (ran the screen)

proteases [13] = target: T12, proteases (Homo sapiens, UniProt P40818); conditions: Ubiquitin carboxyl-terminal hydrolase 8; Reference at 1 μM
T12 construct: BPS Biosciences (ran the screen)
T12 sequence (P40818 whole entry): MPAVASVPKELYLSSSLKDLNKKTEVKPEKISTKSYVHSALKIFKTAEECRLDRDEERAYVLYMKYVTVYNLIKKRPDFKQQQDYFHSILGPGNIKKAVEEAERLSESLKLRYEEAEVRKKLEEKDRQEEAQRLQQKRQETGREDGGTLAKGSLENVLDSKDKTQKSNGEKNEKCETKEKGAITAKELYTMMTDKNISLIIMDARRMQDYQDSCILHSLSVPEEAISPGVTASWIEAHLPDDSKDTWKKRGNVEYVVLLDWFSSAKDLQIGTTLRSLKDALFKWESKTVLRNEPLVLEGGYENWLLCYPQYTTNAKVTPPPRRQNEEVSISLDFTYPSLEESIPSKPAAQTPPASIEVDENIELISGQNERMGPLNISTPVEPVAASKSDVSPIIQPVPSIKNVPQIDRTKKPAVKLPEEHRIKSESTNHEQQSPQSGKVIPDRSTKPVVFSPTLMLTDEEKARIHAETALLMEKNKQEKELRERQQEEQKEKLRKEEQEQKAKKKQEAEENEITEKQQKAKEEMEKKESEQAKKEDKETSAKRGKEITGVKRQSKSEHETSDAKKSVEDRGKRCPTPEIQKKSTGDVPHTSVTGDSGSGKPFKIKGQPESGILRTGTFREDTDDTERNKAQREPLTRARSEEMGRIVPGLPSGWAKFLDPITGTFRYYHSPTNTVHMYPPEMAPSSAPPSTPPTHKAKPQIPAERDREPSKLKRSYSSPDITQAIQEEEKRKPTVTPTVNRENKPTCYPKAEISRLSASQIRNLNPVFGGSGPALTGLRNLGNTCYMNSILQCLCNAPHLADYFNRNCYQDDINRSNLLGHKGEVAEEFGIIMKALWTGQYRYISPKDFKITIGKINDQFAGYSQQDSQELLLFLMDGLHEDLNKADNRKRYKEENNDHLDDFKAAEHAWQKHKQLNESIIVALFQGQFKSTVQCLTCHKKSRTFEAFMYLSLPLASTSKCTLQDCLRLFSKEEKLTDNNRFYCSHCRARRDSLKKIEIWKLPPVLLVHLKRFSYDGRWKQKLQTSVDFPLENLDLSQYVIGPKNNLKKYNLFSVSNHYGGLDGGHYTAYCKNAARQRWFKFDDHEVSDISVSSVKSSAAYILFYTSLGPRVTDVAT

proteases [14] = target: T13, proteases (Homo sapiens, UniProt Q93009); conditions: Ubiquitin carboxyl-terminal hydrolase 7; Reference at 1 μM
T13 construct: BPS Biosciences (ran the screen)

proteases [15] = target: T14, proteases (Homo sapiens, UniProt P21580); conditions: A20; Reference at 1 μM
T14 construct: BPS Biosciences (ran the screen)
T14 sequence (P21580 whole entry): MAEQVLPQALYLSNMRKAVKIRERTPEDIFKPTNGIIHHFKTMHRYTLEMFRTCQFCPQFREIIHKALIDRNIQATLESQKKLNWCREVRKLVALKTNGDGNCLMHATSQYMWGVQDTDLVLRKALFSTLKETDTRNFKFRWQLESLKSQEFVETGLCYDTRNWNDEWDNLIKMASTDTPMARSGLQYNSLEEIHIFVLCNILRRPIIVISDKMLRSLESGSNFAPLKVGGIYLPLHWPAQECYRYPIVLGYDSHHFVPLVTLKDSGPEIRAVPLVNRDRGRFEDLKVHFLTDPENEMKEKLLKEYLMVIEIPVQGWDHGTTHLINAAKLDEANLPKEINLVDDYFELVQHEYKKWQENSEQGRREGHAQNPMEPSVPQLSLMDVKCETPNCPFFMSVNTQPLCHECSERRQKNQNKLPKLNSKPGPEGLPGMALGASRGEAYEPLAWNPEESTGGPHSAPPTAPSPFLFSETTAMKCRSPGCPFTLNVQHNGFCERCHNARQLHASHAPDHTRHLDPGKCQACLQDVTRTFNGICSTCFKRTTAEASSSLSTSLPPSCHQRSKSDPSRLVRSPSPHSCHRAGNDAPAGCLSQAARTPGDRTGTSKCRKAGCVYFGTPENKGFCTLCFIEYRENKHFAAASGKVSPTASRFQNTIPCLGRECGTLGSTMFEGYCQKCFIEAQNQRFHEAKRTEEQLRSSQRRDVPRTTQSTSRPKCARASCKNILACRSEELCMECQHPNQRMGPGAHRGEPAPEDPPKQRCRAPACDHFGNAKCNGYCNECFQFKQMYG

proteases [16] = target: T15, proteases (Homo sapiens, UniProt P54578); conditions: Ubiquitin carboxyl-terminal hydrolase 14; Reference at 100 nM
T15 construct: BPS Biosciences (ran the screen)

proteases [17] = target: T16, proteases (Homo sapiens, UniProt P15374); conditions: Ubiquitin carboxy-terminal hydrolase L3; Reference at 10 nM
T16 construct: BPS Biosciences (ran the screen)
T16 sequence (P15374 whole entry): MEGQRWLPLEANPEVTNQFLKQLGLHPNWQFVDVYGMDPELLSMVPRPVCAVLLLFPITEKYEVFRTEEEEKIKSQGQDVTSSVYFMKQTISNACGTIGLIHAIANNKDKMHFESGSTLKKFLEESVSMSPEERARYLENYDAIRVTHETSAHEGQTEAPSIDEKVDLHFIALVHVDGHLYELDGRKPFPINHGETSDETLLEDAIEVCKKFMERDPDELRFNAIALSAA

proteases [18] = target: T17, proteases (Homo sapiens, UniProt P45974); conditions: Ubiquitin carboxyl-terminal hydrolase 5; Reference at 1 μM
T17 construct: BPS Biosciences (ran the screen)

proteases [19] = target: T18, proteases (Homo sapiens, UniProt Q8N6M0); conditions: Deubiquitinase OTUD6B; Reference at 1 μM
T18 construct: BPS Biosciences (ran the screen)
T18 sequence (Q8N6M0 whole entry): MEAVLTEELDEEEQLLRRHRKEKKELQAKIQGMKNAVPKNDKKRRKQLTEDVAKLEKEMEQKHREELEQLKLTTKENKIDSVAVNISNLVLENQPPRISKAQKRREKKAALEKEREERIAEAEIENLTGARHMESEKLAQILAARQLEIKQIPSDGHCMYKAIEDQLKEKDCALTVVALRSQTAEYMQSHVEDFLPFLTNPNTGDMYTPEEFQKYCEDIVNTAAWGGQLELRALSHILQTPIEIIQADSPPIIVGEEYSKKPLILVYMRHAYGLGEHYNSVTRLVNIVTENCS

proteases [20] = target: T19, proteases (Homo sapiens, UniProt O75604); conditions: Ubiquitin carboxyl-terminal hydrolase 2; Reference at 1 μM
T19 construct: BPS Biosciences (ran the screen)
T19 sequence (O75604 whole entry): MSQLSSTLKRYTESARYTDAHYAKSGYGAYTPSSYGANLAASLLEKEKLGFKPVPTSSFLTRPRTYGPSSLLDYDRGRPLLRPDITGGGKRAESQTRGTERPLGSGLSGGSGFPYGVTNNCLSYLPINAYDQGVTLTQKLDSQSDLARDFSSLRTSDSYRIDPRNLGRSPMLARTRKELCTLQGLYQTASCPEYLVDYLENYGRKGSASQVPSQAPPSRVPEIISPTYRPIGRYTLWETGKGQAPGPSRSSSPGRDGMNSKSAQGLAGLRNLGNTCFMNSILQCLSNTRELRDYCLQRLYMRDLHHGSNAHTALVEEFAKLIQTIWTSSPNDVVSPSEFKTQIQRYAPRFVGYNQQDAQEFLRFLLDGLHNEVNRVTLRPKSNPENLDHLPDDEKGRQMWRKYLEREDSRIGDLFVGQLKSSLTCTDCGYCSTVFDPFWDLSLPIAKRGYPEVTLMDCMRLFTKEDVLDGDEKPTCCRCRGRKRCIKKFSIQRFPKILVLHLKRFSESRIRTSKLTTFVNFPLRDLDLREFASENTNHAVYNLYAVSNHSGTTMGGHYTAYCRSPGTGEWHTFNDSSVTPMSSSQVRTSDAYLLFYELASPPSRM

proteases [21] = target: T20, proteases (Homo sapiens, UniProt P54252); conditions: Ataxin3; Reference at 10 μM
T20 construct: BPS Biosciences (ran the screen)
T20 sequence (P54252 whole entry): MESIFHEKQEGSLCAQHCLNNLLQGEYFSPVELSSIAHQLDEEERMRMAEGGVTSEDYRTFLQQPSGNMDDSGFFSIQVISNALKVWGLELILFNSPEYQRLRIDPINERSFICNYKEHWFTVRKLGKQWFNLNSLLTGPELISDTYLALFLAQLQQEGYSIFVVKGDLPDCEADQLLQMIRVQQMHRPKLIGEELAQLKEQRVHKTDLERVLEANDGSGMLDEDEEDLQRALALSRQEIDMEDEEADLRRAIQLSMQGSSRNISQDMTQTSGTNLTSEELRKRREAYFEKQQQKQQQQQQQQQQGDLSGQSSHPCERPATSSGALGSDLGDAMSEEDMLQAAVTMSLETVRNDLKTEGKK

proteases [22] = target: T21, proteases (Homo sapiens, UniProt Q14694); conditions: Ubiquitin carboxyl-terminal hydrolase 10; Reference at 1 μM
T21 construct: BPS Biosciences (ran the screen)

T1 sequence (Q6V1X1 whole entry): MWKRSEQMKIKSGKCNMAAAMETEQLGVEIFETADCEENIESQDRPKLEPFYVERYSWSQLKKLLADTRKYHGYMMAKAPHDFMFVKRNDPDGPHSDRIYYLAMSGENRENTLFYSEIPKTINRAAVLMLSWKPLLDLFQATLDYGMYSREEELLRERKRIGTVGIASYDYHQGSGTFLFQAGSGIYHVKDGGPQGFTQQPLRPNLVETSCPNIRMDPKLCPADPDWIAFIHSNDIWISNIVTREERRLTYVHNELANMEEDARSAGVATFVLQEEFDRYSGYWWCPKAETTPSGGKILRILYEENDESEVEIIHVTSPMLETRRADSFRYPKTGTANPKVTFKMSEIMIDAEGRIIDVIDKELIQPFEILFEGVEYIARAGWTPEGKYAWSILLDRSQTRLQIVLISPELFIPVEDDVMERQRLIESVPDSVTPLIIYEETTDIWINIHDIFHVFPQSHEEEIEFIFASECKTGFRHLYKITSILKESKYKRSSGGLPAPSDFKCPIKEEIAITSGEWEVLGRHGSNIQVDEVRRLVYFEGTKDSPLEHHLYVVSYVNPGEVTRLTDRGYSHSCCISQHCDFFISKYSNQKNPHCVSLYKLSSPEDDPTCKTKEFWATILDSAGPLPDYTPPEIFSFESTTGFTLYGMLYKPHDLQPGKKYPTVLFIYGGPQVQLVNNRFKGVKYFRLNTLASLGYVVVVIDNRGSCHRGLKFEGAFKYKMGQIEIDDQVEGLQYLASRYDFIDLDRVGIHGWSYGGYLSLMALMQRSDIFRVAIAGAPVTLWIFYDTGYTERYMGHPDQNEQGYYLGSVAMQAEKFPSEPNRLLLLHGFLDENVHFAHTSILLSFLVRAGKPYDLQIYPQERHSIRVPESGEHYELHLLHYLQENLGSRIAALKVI

N#Cc1ccc(NCCNCC(=O)N2N=CCC2C#N)nc1 (stereo not shown) [KR62436]
Percentage inhibition (%) (proteases [1]): 96%
Percentage inhibition (%) (proteases [2]): 83%

COc1ccc(S(=O)(=O)N(CC(=O)NO)CC(C)C)cc1 [NNGH]
Percentage inhibition (%) (proteases [3]): 95%
Percentage inhibition (%) (proteases [4]): 92%
Percentage inhibition (%) (proteases [5]): 87%

N#C[C@@H]1CC(F)(F)CN1C(=O)CNC(=O)c1ccnc2ccccc12 [SP-13786]
Percentage inhibition (%) (proteases [6]): 100%

Denoprevir
Percentage inhibition (%) (proteases [7]): 100%
Percentage inhibition (%) (proteases [8]): 99%
Percentage inhibition (%) (proteases [9]): 98%
Percentage inhibition (%) (proteases [10]): 94%
Percentage inhibition (%) (proteases [11]): 99%

Ub-Aldehyde
Percentage inhibition (%) (proteases [12]): 92%
Percentage inhibition (%) (proteases [13]): 73%
Percentage inhibition (%) (proteases [14]): 95%
Percentage inhibition (%) (proteases [15]): 99%
Percentage inhibition (%) (proteases [16]): 96%
Percentage inhibition (%) (proteases [17]): 95%
Percentage inhibition (%) (proteases [18]): 84%
Percentage inhibition (%) (proteases [19]): 97%
Percentage inhibition (%) (proteases [20]): 91%
Percentage inhibition (%) (proteases [21]): 77%
Percentage inhibition (%) (proteases [22]): 82%
